From US20220162610A1, “NOVEL RNA TRANSCRIPT” (PTC Therapeutics, Inc., priority 2020, published 2022)
“Also recorded” adds a separate entry of the source. Like-named read-outs stand apart in the source and are kept apart here.

Experiments:
[1] = Phase 1 study, safety and tolerability in healthy subjects; assay type: in vivo, human
Protocol: The study was monitored by a Safety Review Committee (SRC). […] Safety and tolerability were assessed by the SRC between each cohort prior to ascending from one dose level to the next higher dose level in Part 1 (single ascending dose [SAD]) and Part 2 (multiple ascending dose [MAD]), and prior to initiating Part 3 (CSF), Part 4 (FE), and Part 5.
Change from baseline to each scheduled time point up to EOS for vital signs; Change from baseline to each scheduled time point up to EOS for ECG parameters; Change from baseline to each scheduled time point up to EOS for clinical laboratory tests; Changes from baseline in C-SSRS scores (Part 2, Part 3, and Part 5 only); Treatment-emergent adverse events (AEs) up to EOS; Treatment-emergent AEs leading to premature discontinuation of study drug; Treatment-emergent serious adverse events (SAEs) up to EOS; and, Abnormalities in physical examination.

HTT protein = assay: Phase 1 study, HTT protein in blood of healthy volunteers (MAD); assay type: in vivo, human; conditions: after 21 days of treatment (MAD)
Excerpt: (§1) The multiple ascending (MAD) part of the study was randomized, double-blind, and placebo controlled in healthy male and female subjects. Up to five regimens are planned to be tested in up to 5 cohorts of 8 subjects each (Cohort 2.1 to 2.5). Within each cohort, 6 subjects were to receive Compound 1 and 2 subjects were to receive placebo. Subjects in Cohort 2.1 and 2.2 were to be dosed for 14 days, subjects in Cohort 2.3 to 2.5 were to be dosed for up to 21 days.
In untreated cells, there is a steady state level of mRNA and protein because the amount of mRNA or protein being synthesized matches the amount that is being degraded, so that the mRNA and protein levels are the same over time. The addition of Compound 1 triggers the inclusion of the HTT pseudoexon into the transcript which results in the rapid decay of the HTT mRNA and a reduction of HTT mRNA to […]. […] In this example, ˜50% of newly synthesized mRNA was inhibited. Of the HTT mRNA synthesized prior to treatment, about 50% is degraded after 24 hours. The HTT protein level depends on how much mRNA is produced. Thus, a reduction by 50% would cause a 50% reduction of the HTT protein. […] Changes in HTT protein levels were assessed in MAD cohort over a longer period of time. Accordingly, healthy subjects were treated for 21 days before the amount of HTT mRNA and protein was measured in blood samples taken from each subject. […]

[2] = PK-PD compartment model and decay-rate modelling of HTT mRNA and protein lowering; set-up: species or system human; conditions: 30 mg daily dose, model based on half-life
Excerpt: (§2) HTT mRNA reaches steady state after approximately 5 days. For HTT protein, the half-life was estimated to be 5-7 days and consequently HTT protein steady state levels would only be attained about 6 weeks from the beginning of treatment.
(§3) A target 30% to 50% decrease in mHTT is the range associated with decreased pathology and anticipated therapeutic benefit in patients. In the Phase 1 study, Compound 1-mediated HTT pre-mRNA splicing was dose dependent across all cohorts in both the SAD and MAD portions of the study. Mean decreases in full-length HTT mRNA levels of 40% and 60% were observed after 14 days of treatment with Compound 1 at 15 mg and 30 mg, respectively. On the basis of these clinical data, a PK-PD compartment model was used to simulate percentage of mRNA decreases (and thus the anticipated magnitude of HTT protein lowering) at additional potential clinical doses.

HTT mRNA [3] = assay: as above; set-up: species or system human
Excerpt: as §2, §3

HTT mRNA [4] = assay: Phase 1 study, HTT mRNA in whole blood of healthy volunteers; assay type: in vivo, human; conditions: for Mean decrease in full-length HTT mRNA levels: after 14 days of treatment (MAD)
Protocol: The Phase 1 study was conducted in 5 parts: single ascending doses (SAD)(Part 1), multiple ascending doses (MAD)(Part 2), CSF and blood sampling after 7 days of Compound 1 administration (Part 3), food effect (Part 4), and multiple dosing for up to 28 days (Part 5). Part 1, Part 2, and Part 5 are double blind; Part 3 and Part 4 are open-label. Note that Part 3, Part 4, and Part 5 may be conducted concurrently.
The single ascending dose (SAD) part of the study was randomized, double-blinded, and placebo controlled in healthy male and female subjects.
as §1
The amount of HTT mRNA was then evaluated by RT-PCR 6 hours after administration of Compound 1 on day 14.

Rat toxicology, NOAEL = conditions: male, in vivo
Protocol: The initial dose in the first cohort was ≤ 1/10 of the human equivalent dose (HED) estimated from the NOAEL (no observed adverse effect level) of the (male) rat, which is the most sensitive species, following the FDA guidance on the maximum recommended starting dose (MRSD) and EMA guidelines. The NOAEL of the rat is 6 mg/kg. […] The HED of 0.97 mg/kg was calculated; this scaled in a 70 kg human to 68 mg. Adjusting this dose to 1/10, the dose of the first cohort was 6.8; the actual administered dose will be 5 mg.

[5] = Phase 1 study, pharmacokinetics in plasma and CSF, food effect; assay type: in vivo, human
Excerpt: The concentrations of Compound 1 in plasma and CSF were to be assessed in an open-label design in healthy male and female subjects. A single dose of Compound 1 was to be administered daily for 7 days in 1 cohort of 6 subjects (Cohort 3.1). The dose level of Part 3 was to be determined based upon a review of the safety, tolerability, and PK data of Part 1 and Part 2 of the study. While the MAD dose was to be determined further in development, that dose and schedule was to be applied to this part of the study.
Eligibility was to be assessed during a screening period of up to 28 days. Subjects were to check into the clinic 1 day before dosing (Day −1). On the morning of Day 1 to Day 7, Compound 1 was to be orally administered after an overnight fast of at least 10 hours each day. Serial sampling of CSF and sampling of plasma for drug concentrations was to be performed on Day 7. The exact timing of the CSF and blood samples was to be determined based on the results of Part 1 and Part 2. […]
The food effect (FE) part was a parallel, open-label part in healthy male and female subjects in up to 3 cohorts of 6 subjects each. […] The dose levels for this part were to be chosen based upon a review of available safety, tolerability and PK data as determined in Part 1 and Part 2.

With `CC1(C)CC(n2nnc3cc(-c4ccc(-n5nccn5)cc4O)nnc32)CC(C)(C)N1` [Compound 1, 2-[3-(2,2,6,6-tetramethylpiperidin-4-yl)-3H-[1,2,3]triazolo[4,5-c]pyridazin-6-yl]-5-(2H-1,2,3-triazol-2-yl)phenol] as the molecule, how does the dose-limiting toxicities ([1]; SAD and MAD portions) read?
Its dose-limiting toxicities is “no events considered to be dose-limiting toxicities”.

What about the “laboratory abnormalities and ECG findings” value ([1]; any dose, SAD and MAD portions) of the same molecule?
Its value is “no clinically significant laboratory abnormalities or electrocardiogram (ECG) findings”.

And the safety and tolerability ([1]; single doses 5 to 135 mg, multiple doses 15 and 30 mg up to 21 days)?
Its safety and tolerability is “well-tolerated with no safety-related findings; also recorded: safe and generally well tolerated”.

And the “lowering in the amount of HTT protein” value (HTT protein)?
The value was “approximately 40%”.

And the “predicted time for HTT protein steady state levels” value [2]?
Its value is “about 6 weeks”.

And the “predicted percent full-length HTT mRNA decrease from baseline” value (HTT mRNA [3]; 10 mg QD and 20 mg QD, PK-PD compartment model)?
Its value is 30 to 50%.

And the “predicted time for HTT mRNA to reach steady state” value (HTT mRNA [3]; 30 mg daily dose, model based on half-life)?
The value was “approximately 5 days”.

What about the “Mean decrease in full-length HTT mRNA levels” value (HTT mRNA [4]; 15 mg) of the same molecule?
Its value is 40%.

And the “Mean decrease in full-length HTT mRNA levels” value (HTT mRNA [4]; 30 mg)?
The value was 60%.

What about the “maintenance of splicing following the last dose” value (HTT mRNA [4]; MAD cohort) of the same molecule?
The value was “up to 72 hours”.

What about the “HTT mRNA in whole blood” value (HTT mRNA [4]; MAD: 15 mg or 30 mg for 14 days, 6 hours after dose on day 14) of the same molecule?
Its value is “dose-dependent lowering of HTT mRNA”.

And the “time for HTT mRNA levels to reach steady state” value (HTT mRNA [4]; Multiple Ascending Dose Study)?
The value was 4 to 5 days.

And the “total amount of HTT mRNA” value (HTT mRNA [4]; SAD cohort, 24 hours after dose, even with higher concentrations)?
Its value is “about 50 % of baseline”.

What about the “persistence of HTT splicing effect post cessation of treatment” value (HTT mRNA [4]; SAD cohorts) of the same molecule?
Its value is 72 h.

What about the “HTT mRNA in whole blood” value (HTT mRNA [4]; SAD: 5, 15, 45, 90 or 135 mg, 24 hours after dose) of the same molecule?
The value was “dose-dependent lowering of HTT mRNA”.

And the “HTT mRNA lowering (target level achieved)” value (HTT mRNA [4]; lowest dose tested, both SAD and MAD cohorts)?
The value was 30-50%.

And the NOAEL (Rat toxicology, NOAEL; (male) rat, germ cell exfoliation in epididymis and testes, read-out: NOAEL (no observed adverse effect level))?
The NOAEL was 6 mg/kg.

And the NOAEL (Rat toxicology, NOAEL; from rat NOAEL, read-out: human equivalent dose (HED) estimated from the NOAEL)?
The NOAEL was 0.97 mg/kg.

What about the drug half-life ([5]; MAD cohort) of the same molecule?
Its drug half-life is “long drug half-life”.

What about the “Compound levels in the CSF compared with plasma” value ([5]; healthy subjects, 30 mg daily dose) of the same molecule?
The value was “equal to or greater than levels observed in plasma”.
